The subject of this assay is mesenchymal stem cells. The experiment in a line: qRT-PCR of IDO and TSG6 expression in mesenchymal stem cells treated with priming candidates. The settings on record: for expression of IDO and TSG6: compared to untreated control group 0, Table 1 groups, 24 hours; for lowest effective concentrations capable of inducing significantly increased expression of both TSG6 and IDO: single substance, 24 hours treatment, qRT-PCR. It is filed as cell-based. Here is the method: In a 37° C. and 5% CO2 incubator, mesenchymal stem cells in a storage state (LN2 tank storage) were thawed and cultured, and at this time, the cells were cultured in a medium (DMEM, alpha-MEM) containing 10% FBS or 4% hPL until proliferated to a cell confluence of about 80%. The cultured mesenchymal stem cells were seeded in a 100 mm dish, and treated with candidate substances for reinforcing the functions of the mesenchymal stem cells for 24 hours, and then the concentrations of primary candidate substances for reinforcing the functions were set.
TNF-α and IFN-γIFN-α were selected as the primary candidate substances, and in order to confirm the lowest effective concentration capable of increasing the expression of TNFα-stimulated gene-6 (TSG6) and indoleamine 2,3-dioxygenase (IDO) to confirm the reinforced functions, the stem cells were treated with 5, 10, and 20 ng/ml of TNF-α, 5, 10, and 20 ng/ml of IFN-γ, and 10, 20, and 40 ng/ml of IFN-α, respectively, and changes in expression of TSG6 and IDO were confirmed.
The IDO was known as an immunomodulatory factor that inhibited the proliferation of immune cells such as T cells by converting tryptophan, which was essential for T cell proliferation, into kynurenine, and the TSG6 was known as an anti-inflammatory regulator secreted by mesenchymal stem cells. After culturing the stem cells, total RNA was isolated using TRIzol (Invitrogen), and cDNA was synthesized from total RNA using PrimeScript™ RT reagent Kit with gDNA Eraser (TaKaRa), and qRT-PCR was performed. The results of TSG6 and IDO according to the concentration of each candidate substance were illustrated in FIGS. 1, 2 and 3.
Through Example 1, candidate substances and concentration combinations thereof selected to search for more functionally reinforced compositions based on the candidate substances and the lowest effective concentrations confirmed to induce the reinforced functions of stem cells were set as shown in Table 1. Mesenchymal stem cells were treated with the candidate combinations described in Table 1 below for 24 hours, and the stem cells were cultured as in Example 1, and then total RNA was isolated using TRIzol (Invitrogen). Thereafter, qRT-PCR was performed by synthesizing cDNA from total RNA using the PrimeScript™ RT reagent Kit with gDNA Eraser (TaKaRa).
Vitamins were known to improve the proliferative ability of stem cells and maintain the stemness of stem cells when added during a stem cell culture process. Accordingly, various vitamins were treated in the stem cell culture process, and experiments were performed to confirm whether or not vitamins could achieve anti-inflammatory and immune function reinforcing effects of stem cells. Specifically, the stem cells were treated with various types of vitamins shown in Table 2 according to the method described in Example 1, and the results of confirming changes in expression of IDO and TSG6 according to treatment with each candidate substance were illustrated in FIG. 5.
On the technique in general: Real-time PCR tracks product formation cycle by cycle.

On to “IFN-γ: priming candidate substance; Table 1 group 2, 10 ng/ml”, for which the “expression of IDO and TSG6” value is reported as “increased expression”; the “lowest effective concentrations capable of inducing significantly increased expression of both TSG6 and IDO” value is 10 ng/mL.

In the case of IFN-α, the “expression of IDO and TSG6” value was “increased expression”; the “lowest effective concentrations capable of inducing significantly increased expression of both TSG6 and IDO” value was determined as 20 ng/mL.

Consider TNF-α, for which the “expression of IDO and TSG6” value is “increased expression”; the “lowest effective concentrations capable of inducing significantly increased expression of both TSG6 and IDO” value was 10 ng/mL.

Values taken from US20240216438A1, “COMPOSITION CONTAINING FUNCTION-REINFORCED STEM CELL FOR PREVENTION OR TREATMENT OF ATOPIC DERMATITIS” (SCM LIFESCIENCE CO., LTD., priority 2021, published 2024).
